Patent US20240398837A1, “Combination Therapy For Prostate Cancer” (Janssen Pharmaceutica NV, priority 2017, published 2024)
Read-outs that look alike come from different tables or passages of the source.

Assays:
mCRPC = settings: cited from earlier work
androgens = settings: cited from earlier work
[1] = system: human VCaP prostate tumors; settings: for TGI (%): day 58, vs. vehicle control; for TGI (%) / Tumor on day: p.o. Qd x 35; for ILS (%): increased life span, compared with group 1 (vehicle); for MLS: median lifespan, euthanized when tumor volume reached 1500 mm^3; for Tumor on day: tumor volume, Mean ± SEM, day 58, N=10/group
PARP-1 = PARP-1 (Homo sapiens, UniProt P09874); settings: in words; cited from earlier work
Sequence of PARP-1 (P09874 whole entry, species assumed): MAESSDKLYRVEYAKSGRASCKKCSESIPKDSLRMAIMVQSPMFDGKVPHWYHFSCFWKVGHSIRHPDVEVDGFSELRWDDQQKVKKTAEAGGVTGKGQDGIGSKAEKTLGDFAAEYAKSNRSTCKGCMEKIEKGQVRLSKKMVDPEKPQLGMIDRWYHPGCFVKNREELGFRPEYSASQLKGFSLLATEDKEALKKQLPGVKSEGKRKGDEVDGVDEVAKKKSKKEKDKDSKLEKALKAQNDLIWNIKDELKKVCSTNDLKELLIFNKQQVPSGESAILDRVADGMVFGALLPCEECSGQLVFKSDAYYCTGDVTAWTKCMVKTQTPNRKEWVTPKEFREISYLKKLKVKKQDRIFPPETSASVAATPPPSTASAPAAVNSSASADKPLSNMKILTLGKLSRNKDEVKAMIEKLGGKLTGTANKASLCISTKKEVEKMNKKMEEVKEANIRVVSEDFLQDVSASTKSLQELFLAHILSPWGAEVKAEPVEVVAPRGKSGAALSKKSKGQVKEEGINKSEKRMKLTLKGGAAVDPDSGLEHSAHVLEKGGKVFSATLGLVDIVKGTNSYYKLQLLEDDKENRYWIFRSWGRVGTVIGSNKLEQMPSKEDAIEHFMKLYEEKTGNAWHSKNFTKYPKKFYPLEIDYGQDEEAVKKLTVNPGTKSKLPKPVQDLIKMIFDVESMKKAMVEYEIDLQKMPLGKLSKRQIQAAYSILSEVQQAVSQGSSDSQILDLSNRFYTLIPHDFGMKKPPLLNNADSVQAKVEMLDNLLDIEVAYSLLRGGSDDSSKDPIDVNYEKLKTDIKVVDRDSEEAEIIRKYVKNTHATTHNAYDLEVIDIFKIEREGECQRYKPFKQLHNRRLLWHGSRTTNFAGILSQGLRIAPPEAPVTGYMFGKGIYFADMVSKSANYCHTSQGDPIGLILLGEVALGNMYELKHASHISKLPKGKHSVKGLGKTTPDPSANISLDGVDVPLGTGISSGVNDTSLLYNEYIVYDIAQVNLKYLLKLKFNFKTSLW

PARP-2 = PARP-2 (Homo sapiens, UniProt Q9UGN5); settings: in words; cited from earlier work
Sequence of PARP-2 (Q9UGN5 whole entry, species assumed): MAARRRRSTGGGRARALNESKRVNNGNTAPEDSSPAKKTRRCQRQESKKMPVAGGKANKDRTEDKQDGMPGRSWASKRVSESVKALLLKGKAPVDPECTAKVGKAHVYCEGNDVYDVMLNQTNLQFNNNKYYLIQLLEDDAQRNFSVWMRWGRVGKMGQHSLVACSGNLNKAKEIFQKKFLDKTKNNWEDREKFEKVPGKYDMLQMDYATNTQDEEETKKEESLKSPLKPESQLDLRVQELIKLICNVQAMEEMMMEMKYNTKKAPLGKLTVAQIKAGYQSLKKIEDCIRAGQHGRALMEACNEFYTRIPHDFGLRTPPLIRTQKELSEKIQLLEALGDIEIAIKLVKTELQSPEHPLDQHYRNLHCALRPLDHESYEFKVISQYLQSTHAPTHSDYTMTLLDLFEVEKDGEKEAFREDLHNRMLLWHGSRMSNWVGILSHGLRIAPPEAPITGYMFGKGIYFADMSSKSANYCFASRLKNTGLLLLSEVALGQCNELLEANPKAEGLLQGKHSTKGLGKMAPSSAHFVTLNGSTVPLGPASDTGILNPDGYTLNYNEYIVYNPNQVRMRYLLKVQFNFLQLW

[2] = system: cancer cell lines that have been silenced for BRCA-1 or BRCA-2 genes, or that have BRCA-1 and BRCA-2 mutations; settings: due to cell cycle arrest, followed by apoptosis; cited from earlier work
[3] = system: BRCA-1-deficient breast, BRCA-2-deficient pancreatic and ovarian cancers; settings: mice; cited from earlier work
[4] = system: cytochrome P450 (CYP) enzymes; settings: in words; cited from earlier work
CYP1A2 = settings: preclinical data; cited from earlier work
[5] = cited from earlier work
P-glycoprotein = P-glycoprotein (Homo sapiens, UniProt P08183); settings: cited from earlier work
Sequence of P-glycoprotein (P08183 whole entry): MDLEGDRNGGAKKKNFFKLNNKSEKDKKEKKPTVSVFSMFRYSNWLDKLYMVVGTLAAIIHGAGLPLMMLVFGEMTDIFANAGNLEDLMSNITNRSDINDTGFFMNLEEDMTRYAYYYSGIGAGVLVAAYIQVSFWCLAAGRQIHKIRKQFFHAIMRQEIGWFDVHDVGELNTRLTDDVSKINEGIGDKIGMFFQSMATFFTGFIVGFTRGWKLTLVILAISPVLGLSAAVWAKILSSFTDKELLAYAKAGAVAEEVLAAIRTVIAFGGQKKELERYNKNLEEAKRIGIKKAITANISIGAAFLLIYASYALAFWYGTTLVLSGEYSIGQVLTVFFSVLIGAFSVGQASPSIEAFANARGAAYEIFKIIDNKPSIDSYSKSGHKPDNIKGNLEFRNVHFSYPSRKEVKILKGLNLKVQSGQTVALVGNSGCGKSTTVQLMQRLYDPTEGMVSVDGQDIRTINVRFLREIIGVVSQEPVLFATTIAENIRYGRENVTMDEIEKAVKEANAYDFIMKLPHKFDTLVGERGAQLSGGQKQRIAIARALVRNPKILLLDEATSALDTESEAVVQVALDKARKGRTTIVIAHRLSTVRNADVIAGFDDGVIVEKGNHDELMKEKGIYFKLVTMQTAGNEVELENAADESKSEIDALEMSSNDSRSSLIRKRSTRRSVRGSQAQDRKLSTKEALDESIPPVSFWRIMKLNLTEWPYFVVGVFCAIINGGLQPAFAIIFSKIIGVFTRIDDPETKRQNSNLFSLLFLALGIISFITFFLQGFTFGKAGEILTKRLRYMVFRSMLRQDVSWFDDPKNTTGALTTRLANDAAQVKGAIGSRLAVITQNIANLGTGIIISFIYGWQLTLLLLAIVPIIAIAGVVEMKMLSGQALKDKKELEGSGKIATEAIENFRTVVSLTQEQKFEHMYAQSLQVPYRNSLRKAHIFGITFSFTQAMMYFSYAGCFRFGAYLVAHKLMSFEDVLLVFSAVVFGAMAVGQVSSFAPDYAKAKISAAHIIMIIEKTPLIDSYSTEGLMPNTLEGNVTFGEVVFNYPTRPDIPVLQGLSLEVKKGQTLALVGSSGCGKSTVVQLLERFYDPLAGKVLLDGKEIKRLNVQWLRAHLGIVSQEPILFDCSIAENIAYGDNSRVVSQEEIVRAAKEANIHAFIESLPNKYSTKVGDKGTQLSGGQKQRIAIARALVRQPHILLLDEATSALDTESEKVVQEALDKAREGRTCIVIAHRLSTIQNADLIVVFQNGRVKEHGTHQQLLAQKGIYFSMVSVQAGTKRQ

neurological function = settings: conscious mice; cited from earlier work
[6] = anesthetized dogs; cited from earlier work
[7] = added to castration, relative to castration alone

Compound: O=C(c1cc(Cc2n[nH]c(=O)c3ccccc23)ccc1F)N1CCN(C(=O)C2CC2)CC1 [olaparib]
- responders that were biomarker-positive for anomalies in DNA-repair genes (mCRPC; 14 of the 16 responding patients): 88%
- patients with a response (mCRPC; all patients, sixteen of 49, 95% CI 20%, 48%): 33%
- Overall survival (OS), median (mCRPC; biomarker-negative group): 7.5 months
- Radiographic progression-free survival (rPFS), median (mCRPC; biomarker-negative group): 2.7 months
- patients with a response (mCRPC; biomarker-negative, 2 of 33): 6%
- Overall survival (OS), median (mCRPC; biomarker-positive group): 13.8 months
- Radiographic progression-free survival (rPFS), median (mCRPC; biomarker-positive group): 9.8 months
- patients with a response (mCRPC; patients with ATM aberrations): 4 of 5
- patients with a response (mCRPC; patients with BRCA-2 loss): all 7

Compound: CC(=O)O[C@H]1CC[C@@]2(C)C(=CC[C@@H]3[C@@H]2CC[C@]2(C)C(c4cccnc4)=CC[C@@H]32)C1 [abiraterone acetate, 3β-acetoxy-17-(3-pyridyl)androsta-5,16-diene]
- reduction of levels of DHEA (androgens; [7]): 97-98%
- reduction of levels of DHT (androgens; [7]): 85%
- reduction of levels of androstenedione (androgens; [7]): 77-78%
- circulating testosterone levels (androgens; after administration of abiraterone acetate, castration gives 20 ng/dL): less than 1 ng/dL

Compound: C[C@]12CC[C@H](O)CC1=CC[C@@H]1[C@@H]2CC[C@]2(C)C(c3cccnc3)=CC[C@@H]12 [Abiraterone]
- TGI (%) [1]: 37.6%
- inhibition of tumor growth ([1]; days 37-55, compared with vehicle control): 35%-46%
- ILS (%) [1]: 13.1%
- MLS [1]: 88 days
- Tumor on day [1]: 523 ± 51 mm^3
- increase of MLS ([1]; vs the vehicle control group): 10.5 days

Compound: NC(=O)c1cccc2cn(-c3ccc([C@@H]4CCCNC4)cc3)nc12 [Niraparib, 2-[4-[(3S)-piperidin-3-yl]phenyl]indazole-7-carboxamide]
- TGI (%) [1]: 20.8%
- inhibition of tumor growth ([1]; days 41-55, compared with vehicle control): approximately 25%
- MLS / survival benefit ([1]; in words, compared with the vehicle control group): did not increase MLS or provide a significant survival benefit
- ILS (%) [1]: −0.6%
- MLS [1]: 79 days
- Tumor on day [1]: 664 ± 50 mm^3
- activity against PARP-1 (PARP-1): potent activity
- activity against PARP-2 (PARP-2): potent activity
- anti-proliferative activity [2]: demonstrates anti-proliferative activity
- antitumor activity [3]: has antitumor activity
- inhibition or induction of CYP enzymes [4]: not a potent inhibitor or inducer
- potential to induce CYP1A2 enzymes (CYP1A2): moderate potential
- metabolism ([5]; in vitro, multiple metabolic enzymes (both CYPs and non-CYPs)): limited metabolism
- clearance ([5]; in words): low clearance drug
- P-glycoprotein substrate (P-glycoprotein): is a P-glycoprotein substrate
- effect on neurological function (neurological function): no effect
- QRS cardiac interval [6]: increased
- QTc interval [6]: unaffected
- heart rate [6]: increased
- mean arterial pressure [6]: increased
